In PubChem BioAssay AID732 (Emory University Molecular Libraries Screening Center, 2007) one finds vessel count % control data, which are given here for 35 compounds.

Calls of active or inactive are those of the source. The rule behind the calls is not given here.

The subject of this experiment is in vivo angiogenesis, blood vessel count. In words: reduction of blood vessel formation in vivo – HTS, in vivo study (AID 732).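 Note: zebrafish embryos dosed at one day post fertilization; 0% = reference inhibitor and 100% = plate mean.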 Conditions: active compounds read low;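 tested at 30 µM in the well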.
In the case of `O=C1C(c2c(O)[nH]c3c(Cl)cc(Cl)cc23)=Nc2ccc(Br)cc21`, the vessel count % control is 123% (inactive).
Regarding `N[C@H](CO)C(=O)O`, the vessel count % control is 105% (inactive).
In the case of `O=S1(=O)N(CCN2CC=C(c3c[nH]c4cc(F)ccc34)CC2)c2cccc3c2N1CCC3`, the vessel count % control is 148% (inactive).
Regarding `C#CCN[C@H](C)Cc1ccccc1`, the vessel count % control was 114% (inactive).
The figure for `CC(=O)OC(C)C[N+](C)(C)C` (stereo not given) is 85.5% (inactive).
Take `COc1cc2c(cc1OC)-c1cc(=Nc3c(C)cc(C)cc3C)n(C)c(=O)n1CC2`: the vessel count % control is 58.5% (inactive).
For the compound `CC(C)(O)[C@@H]1[C@H]2OC(=O)[C@@H]1[C@]1(O)C[C@H]3O[C@]34C(=O)O[C@H]2[C@]14C` (tested in a mixture with another compound), the vessel count % control is 116% (inactive).
As to `CN(C)CCCC1(c2ccc(F)cc2)OCc2cc(C#N)ccc21` (stereo not given), the vessel count % control was 99.8% (inactive).
As to `CN(N=O)c1cc(O)ccc1O`, the vessel count % control was 88% (inactive).
`COc1cc(C=C(C#N)C#N)cc(O)c1O`: the vessel count % control is 114% (inactive).
To `C[C@H](NC(=O)/C(C#N)=C/c1ccc(O)c(O)c1)c1ccccc1` belongs 102% (inactive).
The figure for `O=c1cc(-c2ccccc2)[nH]c2nc(Cl)ccc12` is 0% (inactive).
Turning to `Oc1ccc(O)cc1`, the vessel count % control was 128% (inactive).
To `COc1ccccc1N1CCN(CCCNc2cc(=O)n(C)c(=O)n2C)CC1` belongs 111% (inactive); to `C[C@]12CC[C@H](OS(=O)(=O)O)CC1=CC[C@@H]1[C@@H]2CC[C@]2(C)C(=O)CC[C@@H]12`, 90.1% (inactive); to `NCCCS(=O)(=O)O`, 144% (inactive).
The figure for `O=C1NCN(c2ccccc2)C12CCN(CCCC(c1ccc(F)cc1)c1ccc(F)cc1)CC2` is 84.4% (inactive); for `Nc1nc2[nH]c(=O)cnc2c(=O)[nH]1` it is 140% (inactive).
As for `CC(C)(C)c1ccc(C(O)CCCN2CCC(C(O)(c3ccccc3)c3ccccc3)CC2)cc1` (stereo not given), the vessel count % control is 99.8% (inactive).
Regarding `CCN(CC)CCOCCOC(=O)C1(c2ccccc2)CCCC1`, the vessel count % control is 108% (inactive).
For the compound `CCn1cc(C(=O)O)c(=O)c2ccc(Cc3ccccc3)nc21`, the vessel count % control was 108% (inactive).
The figure for `CC(=O)[C@H]1CC[C@H]2[C@@H]3CC[C@H]4C[C@H](O)CC[C@]4(C)[C@H]3C(=O)C[C@]12C` is 111% (inactive); for `N[C@@H](Cc1ccc(O)c(I)c1)C(=O)O` it is 108% (inactive); for `C=CCN1CCc2cc(O)c(O)cc2C(c2ccccc2)C1` (stereo not given) it is 114% (inactive).
`CCc1cccc2c3c([nH]c12)C(CC)(CC(=O)O)OCC3` (stereo not given): the vessel count % control is 83.6% (inactive).
As to `O=C(O)Cc1c[nH]c2ccc(O)cc12`, the vessel count % control was 92.5% (inactive).
Consider `O=C(O)C1CCNCC1`, for which the vessel count % control was 99.7% (inactive).
With `C[N+](C)(C)CC=O`, the vessel count % control was 104% (inactive).
As to `O=c1[nH]c2cc(Cl)c(Cl)cc2[nH]c1=O`, the vessel count % control was 109% (inactive).
As for `COc1cc(C(O)CN)ccc1O` (stereo not given), the vessel count % control is 83.3% (inactive).
To `CNCC(O)c1ccc(O)c(O)c1` (stereo not given) belongs 123% (inactive); to `Cc1cccc(C)c1OCC(N)C(C)C` (stereo not given), 112% (inactive).
Regarding `Cc1cc(C)c(NC(=O)C[C@H](CC(=O)O)c2cccc3ccccc23)c(C(=O)N2CCC3(CCCC3)CC2)c1`, the vessel count % control is 108% (inactive).
With `CNc1ncnc2c1ncn2[C@H]1C[C@H](OP(=O)(O)O)[C@@H](COP(=O)(O)O)O1`, the vessel count % control was 93.2% (inactive).
To `Oc1ccc(/C=C/c2cc(O)cc(O)c2)cc1` belongs 100% (inactive).
